Test results taken from patent US20050085528A1 (priority 2003, published 2005).

Legend:
[1] = tested on: HCV replicon (Huh 5-2 [I389luc-ubi-neo-NS3-3′/5.1]); test: microbe, parasite or virus in culture; assay type: cell-based; conditions: for Inhibition of luciferase expression in replicon cells (in words): FIG. 2; for IC50: Hepatitis C virus, Huh-5-2, luciferase, 72 hours statin treatment
[2] = tested on: EMCV IRES; test: Green fluorescent protein assay (pIRES2-EGFP); assay type: cell-based, Encephalomyocarditis virus; conditions: atorvastatin concentrations which reduced HCV replicon activity (10 uM, FIG. 5)
Description: Replicon cells were electroporated in cytomix buffer at 10^7 cells/mL at 960 uF, 270 V with varying amounts pIRES2-EGFP. Cell viability was monitored by trypan blue staining and cell counting. Aliquots of cells (2×10^4) were plated out in clear bottomed black 96 well plates and incubated for 24 hours. The cells were rinsed with PBS and fluorescence output read using an Analyst HT (LJL Biosystems).
Impairment of this function was examined in the presence of statins. Replicon cells were transfected with varying amounts of pIRES2-EGFP in which the green fluorescent protein reporter is expressed by a EMCV IRES.

[3] = tested on: Replicon cells; conditions: @ 10 μM
[4] = tested on: Replicon cells; test: cells; conditions: read-out: Cytostatic (IC50)
[5] = in vitro; conditions: replicon cells (lucubineo cells)
[6] = tested on: HCV replicon RNA; test: Quantitative RT-PCR (Taqman) of replicon RNA; assay type: cell-based; conditions: FIG. 2A
Description: Statin-treated cells in the duplicate clear plate were analysed for cytotoxicity by addition of 10 μL WST-1 reagent (Roche Biosciences) to each well and incubated for 37° C. for 60 minutes. After vigorous shaking, the plate was read at 450 nm. The supernatent was removed and the monolayer washed with PBS prior to addition 100 μL RLT lysis buffer (Qiagen RNAeasy kit) to each test well, followed by vigorous resuspension to ensure uniform lysis of all cells. Total RNA was extracted according to Qiagen RNAeasy protocols recommended by manufacturer. Briefly, 0.1 μg total RNA was reverse transcribed using random hexamers and 20% cDNA produced was used as a template in a Taqman reaction (Universal PCR Master Mix protocol p\n 43044449 Rev B).
These procedures are described in Perkin Elmer Biosystems User Bulletin 2. Briefly, the quantity of replicon RNA in a given sample was determined relative to the untreated control and normalised with respect to actin. Having established that the efficiencies of the replicon and actin PCR reactions were similar (data not shown), the relative quantity of replicon RNA was described by 2^−ΔΔCt where, ΔΔCt=ΔCt(test)−ΔCt(control) ΔCt(test)[…]−Ct(actin) and ΔCt(control)=Ct(control)−Ct(actin) Cholesterol Biosynthesis Assay

[7] = tested on: Replicon cells
[8] = 6- to 12-month course; cited from earlier work

Molecule	IC50 [1] [µM]	IC50 [4] [µM]	IC50 at 72 h [5] [µM]	other results
CC(C)c1c(C(=O)Nc2ccccc2)c(-c2ccccc2)c(-c2ccc(F)cc2)n1CC[C@@H](O)C[C@@H](O)CC(=O)O (relative stereo) [Atorvastatin, [R-(R*,R*)]-2-(4-fluorophenyl)-b,d-dihydroxy-5-(1-methylethyl)-3-phenyl-4[(phenylamino)carbonyl]-IH-pyrrole-1-heptanoic acid]	4.1	2.5	–	Inhibition of luciferase expression in replicon cells (in words) [1]: increased antiviral activity compared to lovastatin; Effect on GFP signal driven by EMCV IRES [2]: no effect; Cytotoxicity, % at one concentration [3]: 18.3% @ 10 μM
COCc1c(C(C)C)nc(C(C)C)c(/C=C/[C@@H](O)C[C@@H](O)CC(=O)O)c1-c1ccc(F)cc1 [Cerivastatin]	1.1	5.5	4.9	–
CC[C@H](C)C(=O)O[C@H]1C[C@@H](C)C=C2C=C[C@H](C)[C@H](CC[C@@H]3C[C@@H](O)CC(=O)O3)[C@H]21 [Lovastatin]	7.9	89.3	158	Inhibition of luciferase expression in replicon cells (in words) [1]: dose dependent inhibition; Replicon RNA by RT-PCR, normalised to beta actin [6]: quantitative reduction of replicon RNA
C[C@@](O)(CCO)CC(=O)O [MVA, mevalonic acid]	–	–	–	Rescue of atorvastatin inhibition of HCV replicon activity by MVA ([1]; 14 μM MVA, 10 uM atorvastatin, FIG. 3A): begins to alleviate the atorvastatin inhibition; Response of control HCV replicon cells to MVA ([1]; absence of statin, FIG. 3B): do not respond; Rescue of atorvastatin inhibition of HCV replicon activity by MVA ([1]; further addition of MVA, 10 μM atorvastatin): completely restores replicon activity
CC[C@H](C)C(=O)O[C@H]1C[C@H](O)C=C2C=C[C@H](C)[C@H](CC[C@@H](O)C[C@@H](O)CC(=O)O)[C@H]21 [Pravastatin]	322	–	–	Cytostatic, % at one concentration [7]: 25% @ 500,000 μM
CCC(C)(C)C(=O)O[C@H]1C[C@@H](C)C=C2C=C[C@H](C)[C@H](CC[C@@H]3C[C@@H](O)CC(=O)O3)[C@H]21 [Simvastatin]	–	28	64.7	–
Alpha interferon	–	–	–	Patients in whom an autoimmune condition is triggered [8]: about 2%
